Reference: patent publication US20260265178A1, “TERTIARY AMINE DERIVATIVES AND THEIR USES FOR TREATING A VIRAL INFECTION” (ENYO PHARMA, priority 2022, published 2026)

The molecules below were run on Respiratory Syncytial Virus (RSV) (assay: Cytopathic effect (CPE) assay, HEp-2 cells infected by RSV, CellTiter-Glo viability readout). Conditions: HEp-2 cells, RSV MOI 0.5, 3 days, CellTiter-Glo luminescence.
Type: cell-based
Experimental: Cytopathic Effect (CPE) Assay Experimental Procedure:
• RSV titer: 6.9×10^6 pfu/ml • MOI=pfu used for infection/cell number • 1) HEp-2 cells were seeded in 384-well plates at 5000 cells per well in 25 μl assay medium and incubated for 24 h at 37° C. in 5% CO2. Cells were seeded in each well expect for the top row, which contains medium only (low control). • 2) Compounds were dispensed using the Echo550 Liquid Handler. All compounds were used at 10 mM stock concentration. The positive control Ribavirin was included as control compound in all assays. • 3) Cells were expected to double once over 24 h. • 4) The cells were infected the next day at RSV MOI 0.5, adding 5 μl virus diluted in assay medium. • 5) Non-infected cells were treated with 5 μl assay medium (high control) • 6) Plates were centrifuged at 400 rpm, 10 sec to allow the virus to sink onto the cells. • 7) Cells were incubated at 37° C. in 5% CO2 for 3 days. • 8) 10 μl CellTiter-Glo® (Promega) was added to all wells. • 9) The plate was incubated at RT for 30 min. • 10) Luminescence was measured on the Envision plate reader.

Compound | IC50
NC(=O)c1cccc(CN(Cc2cccc(C(N)=O)c2)CC2CCN(C(N)=O)C2)c1 (stereo not drawn) [Compound #17] | Not calculable

Same assay, conditions: HEp-2 cells, RSV MOI 0.5, 3 days, CellTiter-Glo luminescence; read-out: IC50

Compound | IC50 [nM]
COC(=O)c1cccc(CN(Cc2cccc(C(=O)OC)c2)[C@H](CO)c2cccc(Br)c2)c1 [Compound #3] | 3400
COC[C@H](c1cccc(Br)c1)N(Cc1cccc(C(=O)OC)c1)Cc1cccc(C(=O)OC)c1 [Compound #4] | 7
COC[C@H](c1cccc(C(=O)O)c1)N(Cc1cccc(C(=O)OC)c1)Cc1cccc(C(=O)OC)c1 [Compound #5] | 2000
COC[C@H](c1cccc(C(=O)O)c1)N(Cc1cccc(C(=O)O)c1)Cc1cccc(C(=O)O)c1 [Compound #6] | 200

Same assay, conditions: compared with comparative and positive control compounds, FIGS. 1-23A

Compound | % viability of cells infected by RSV
COC[C@H](c1cccc(C(N)=O)c1)N(Cc1cccc(C(N)=O)c1)Cc1cccc(C(N)=O)c1 [Compound #21, 3-[[[(1S)-1-(3-carbamoylphenyl)-2-methoxy-ethyl]-[(3-carbamoylphenyl)methyl]amino]methyl]benzamide] | higher % of viability

Same assay, conditions: compound #21 versus comparative compounds

Compound | IC50 times lower than IC50 of comparative compounds [times]
COC[C@H](c1cccc(C(N)=O)c1)N(Cc1cccc(C(N)=O)c1)Cc1cccc(C(N)=O)c1 [Compound #21, 3-[[[(1S)-1-(3-carbamoylphenyl)-2-methoxy-ethyl]-[(3-carbamoylphenyl)methyl]amino]methyl]benzamide] | ≥ 7

Same assay, conditions: compound #21 versus compound #4

Compound | IC50 times lower than IC50 of the closest structural compound #4
COC[C@H](c1cccc(C(N)=O)c1)N(Cc1cccc(C(N)=O)c1)Cc1cccc(C(N)=O)c1 [Compound #21, 3-[[[(1S)-1-(3-carbamoylphenyl)-2-methoxy-ethyl]-[(3-carbamoylphenyl)methyl]amino]methyl]benzamide] | around 50 times

Same assay, conditions: human respiratory syncytial virus, 72 h; HEp-2 cells, RSV MOI 0.5, 3 days, CellTiter-Glo luminescence; read-out: IC50

Compound | IC50 [nM]
NC(=O)c1cccc(CN(Cc2cccc(C(N)=O)c2)Cc2ccc3[nH]ncc3c2)c1 [Compound #7] | 3900
NC(=O)c1cccc(CN(Cc2cccc(C(N)=O)c2)C[C@@H]2CCCN(C(N)=O)C2)c1 [Compound #8] | 100
CNC(=O)COCCN(Cc1cccc(C(N)=O)c1)Cc1cccc(C(N)=O)c1 [Compound #9] | 2000
COc1ccc(CN(Cc2cccc(C(N)=O)c2)Cc2cccc(C(N)=O)c2)cc1C(N)=O [Compound #10] | 5
NC(=O)c1cccc(CN(Cc2cccc(C(N)=O)c2)C[C@H]2CCCN(C(N)=O)C2)c1 [Compound #11] | 4.5
NC(=O)c1cccc(CN(Cc2cccc(C(N)=O)c2)CC2CCCNC2)c1 (stereo not drawn) [Compound #12] | 130
C[C@@H](c1cccc(C(N)=O)c1)N(Cc1cccc(C(N)=O)c1)Cc1cccc(C(N)=O)c1 [Compound #13] | 4.4
COc1cc(CN(Cc2cccc(C(N)=O)c2)Cc2cccc(C(N)=O)c2)cc(C(N)=O)c1 [Compound #14] | 70
CC(c1cccc(C(N)=O)c1)N(Cc1cccc(C(N)=O)c1)Cc1cccc(C(N)=O)c1 (stereo not drawn) [Compound #15] | 1.5
NC(=O)COCCN(Cc1cccc(C(N)=O)c1)Cc1cccc(C(N)=O)c1 [Compound #16] | 350
NC(=O)c1cccc(CN(Cc2cccc(C(N)=O)c2)CC2CCCN(C(N)=O)C2)c1 (stereo not drawn) [Compound #18] | 8
NC(=O)c1cccc(CN(Cc2cccc(C(N)=O)c2)CC2(F)CCCN(C(N)=O)C2)c1 (stereo not drawn) [Compound #20] | 130
COC[C@H](c1cccc(C(N)=O)c1)N(Cc1cccc(C(N)=O)c1)Cc1cccc(C(N)=O)c1 [Compound #21, 3-[[[(1S)-1-(3-carbamoylphenyl)-2-methoxy-ethyl]-[(3-carbamoylphenyl)methyl]amino]methyl]benzamide] | 0.15
Cc1cn2nc([C@@H]3CCCCN3C(=O)c3cc(Cl)ccc3NS(C)(=O)=O)cc2nc1N1CC[C@H](N)C1 [Presatovir] | 1.1
NC(=O)c1ncn([C@@H]2O[C@H](CO)[C@@H](O)[C@H]2O)n1 [Ribavirin] | 15000

These molecules were tested on recombinant HRSV expressing the firefly luciferase (assay: In vivo anti-hRSV activity in a mouse model of infection (recombinant HRSV expressing firefly luciferase, bioluminescence)). Conditions: BALB/C mice, 1 mpk intranasally, 5 days post infection, versus mock-treated, p<0.05.
Experimental: FIG. 24: In vivo evaluation of compound #21 anti-hRSV activity in a mouse model of infection. FIG. 24A: Bioluminescence was measured by intranasal injection of 50 μl of D-luciferin (200 mM) and capture of photon emission from the chest at 5 days post infection using the IVIS system. Dorsal and ventral views of mice representative of the results are shown. FIG. 24B: Comparative bioluminescence between compound #21 and mock-treated mice 5 days post infection. Each data point represents mean±s.e.m. Brown-Forsythe Test and Welch ANOVA followed by Dunnett's multiple comparison test; * p<0.05
An engineered recombinant HRSV expressing the firefly luciferase was used in a mouse model of infection described in Rameix-Welti et al., Nature Communications, 2014. BALB/C mice were infected with 50×10^4 p.f.u. of virus and treated intranasally by 1 mpk compound #21 or vehicle (10 mice/group). Bioluminescence was measured by intranasal injection of 50 μl of D-luciferin (200 mM) and capture of photon emission from the chest at 5 days post infection using the IVIS system.
Dorsal and ventral views of mice representative of the results are shown at FIG. 24A. Comparative bioluminescence between compound #21 and mock-treated mice 5 days post infection are shown at FIG. 24B. Each data point represents mean±s.e.m. Brown-Forsythe Test and Welch ANOVA followed by Dunnett's multiple comparison test; * p<0.05.

Compound | bioluminescent signal in the lung
COC[C@H](c1cccc(C(N)=O)c1)N(Cc1cccc(C(N)=O)c1)Cc1cccc(C(N)=O)c1 [Compound #21, 3-[[[(1S)-1-(3-carbamoylphenyl)-2-methoxy-ethyl]-[(3-carbamoylphenyl)methyl]amino]methyl]benzamide] | significantly reduced
